# Test results from US9492460B2, “Carbazole compounds useful as bromodomain inhibitors” (Bristol-Myers Squibb Company, priority 2013, dated 2016).
# Biological target: T1, bromodomain BRD4 (44-168), BRD4 (333-460), and BRD4 (1-477 or 44-460) (Homo sapiens, UniProt O60885)
# T1 construct: BRD4(44-168), BRD4(333-460), BRD4(44-460), BRD4(1-477), O60885-1; fused on or other part: N-terminal BirA biotinylation motif, biotinylated; The TVMV-cleavable His6 tag is removed, except in some BRD4(44-460) runs detected with anti-His terbium cryptate
# Experiment: Time Resolved Fluorescence Resonance Energy Transfer (TR-FRET) binding assay
# Details: one of the FRET assays described
row,Structure (SMILES),IC50 [µM]
1,"Cc1noc(C)c1-c1cc(C(N)=O)c2c3cc(N4CC(C)(C)COC4=O)ccc3n(Cc3ccccc3)c2c1 [Example 160, 9-benzyl-2-(3,5-dimethyl-4-isoxazolyl)-6-(5,5-dimethyl-2-oxo-1,3-oxazinan-3-yl)-9H-carbazole-4-carboxamide]",< 0.05
2,"Cc1noc(C)c1-c1cc(C(N)=O)c2c3cc(N(CCO)CCO)ccc3n(Cc3ccccc3)c2c1 [Example 140, 9-benzyl-6-(bis(2-hydroxyethyl)amino)-2-(3,5-dimethyl-4-isoxazolyl)-9H-carbazole-4-carboxamide]",< 0.05
3,"Cc1nocc1-c1cc(C(N)=O)c2c3cc(C(=O)N4CCOCC4)ccc3n(Cc3ccc(F)cc3)c2c1 [Example 122, 9-(4-fluorobenzyl)-2-(3-methyl-4-isoxazolyl)-6-(4-morpholinylcarbonyl)-9H-carbazole-4-carboxamide]",< 0.05
4,Cc1noc(C)c1-c1ccc2c3cc(C(=O)N4CC(C)OC(C)C4)ccc3n(Cc3cccc(F)c3)c2c1 (stereo not drawn) [Example 17],< 0.5
5,Cc1noc(C)c1-c1cc(C(N)=O)c2c3cc(C(=O)N4CC(C)OC(C)C4)ccc3n(Cc3cccc(F)c3F)c2c1 (stereo not drawn) [Example 41],< 0.05
6,Cc1noc(C)c1-c1cc(C(N)=O)c2c3cc(C(=O)N4CCCC4)ccc3n(Cc3ccccc3)c2c1 [Example 66],< 0.05
7,"Cc1noc(C)c1-c1cc(C(N)=O)c2c3cc(N4CCCOC4=O)ccc3n(Cc3ccccc3)c2c1 [Example 156, 9-benzyl-2-(3,5-dimethyl-4-isoxazolyl)-6-(2-oxo-1,3-oxazinan-3-yl)-9H-carbazole-4-carboxamide]",< 0.05
8,"CCNC(=O)c1cc(-c2c(C)noc2C)cc2[nH]c3ccc(N4CCCOC4=O)cc3c12 [Example 154, 2-(3,5-dimethyl-4-isoxazolyl)-N-ethyl-6-(2-oxo-1,3-oxazinan-3-yl)-9H-carbazole-4-carboxamide]",< 7.5
9,Cc1noc(C)c1-c1cc(C(N)=O)c2c3cc(C(=O)N4CC(C)OC(C)C4)ccc3n(Cc3cc(F)ccc3F)c2c1 (stereo not drawn) [Example 42],< 0.05
10,"Cc1noc(C)c1-c1cc(C(N)=O)c2c3cc(N4CCOC4=O)ccc3n(Cc3ccc(F)cc3)c2c1 [Example 152, 2-(3,5-dimethyl-4-isoxazolyl)-9-(4-fluorobenzyl)-6-(2-oxo-1,3-oxazolidin-3-yl)-9H-carbazole-4-carboxamide]",< 0.05
11,Cc1noc(C)c1-c1cc(C(N)=O)c2c3cc(C(=O)N4CCC(O)CC4)ccc3n(Cc3ccccc3)c2c1 [Example 67],< 0.05
12,Cc1noc(C)c1-c1cc(C(N)=O)c2c3cc(C(=O)N4CC(F)C4)ccc3n(C(C)c3cccc(C(F)(F)F)c3)c2c1 (stereo not drawn) [Example 88],< 0.05
13,Cc1noc(C)c1-c1ccc2c3cc(C(=O)N4CC(C)OC(C)C4)ccc3n(Cc3ccc(Cl)cc3)c2c1 (stereo not drawn) [Example 12],< 0.5
14,Cc1noc(C)c1-c1cc(C(N)=O)c2c3cc(C(=O)N(C)C)ccc3n(Cc3ccccc3)c2c1 [Example 48],< 0.05
15,COC1CN(C(=O)c2ccc3c(c2)c2c(C(N)=O)cc(-c4c(C)noc4C)cc2n3Cc2ccccc2)C1 [Example 52],< 0.05
16,"CCNC(=O)c1cc(-c2c(C)noc2C)cc2c1c1cc(N3CCCOC3=O)ccc1n2Cc1ccc(F)cc1 [Example 155, 2-(3,5-dimethyl-4-isoxazolyl)-N-ethyl-9-(4-fluorobenzyl)-6-(2-oxo-1,3-oxazinan-3-yl)-9H-carbazole-4-carboxamide]",< 7.5
17,Cc1noc(C)c1-c1ccc2c3cc(C(=O)N4CC(C)OC(C)C4)ccc3n(CCF)c2c1 (stereo not drawn) [Example 6],< 0.5

row,Structure (SMILES),IC50 [µM]
1,"CNC(=O)c1cc(-c2c(C)noc2C)cc2c1c1cc(N(C)C)ccc1n2Cc1ccccc1 [Example 141, 9-benzyl-6-(dimethylamino)-2-(3,5-dimethyl-4-isoxazolyl)-N-methyl-9H-carbazole-4-carboxamide]",< 0.05
2,Cc1noc(C)c1-c1cc(C(N)=O)c2c3cc(C(=O)N4CC(F)(F)C4)ccc3n(Cc3ccccc3)c2c1 [Example 78],< 0.05
3,"CNC(=O)c1cc(-c2c(C)noc2C)cc2c1c1cc(C(=O)N3CC(F)(F)C3)ccc1n2Cc1ccc(Cl)cc1 [Example 100, 9-(4-chlorobenzyl)-6-(3,3-difluoroazetidine-1-carbonyl)-2-(3,5-dimethylisoxazol-4-yl)-N-methyl-9H-carbazole-4-carboxamide]",< 0.5
4,CNC(=O)c1cc(-c2c(C)noc2C)cc2c1c1cc(C(=O)N3CC(F)C3)ccc1n2Cc1ccc(F)cc1 [Example 103],< 0.05
5,"Cc1noc(C)c1-c1cc(C#N)c2c3ccc(C(=O)N4CCOCC4)cc3n(Cc3ccccc3)c2c1 [Example 187, 9-Benzyl-2-(3,5-dimethyl-4-isoxazolyl)-7-(morpholine-4-carbonyl)-9H-carbazole-4-carbonitrile]",< 0.5
6,"Cc1noc(C)c1-c1cc(C(=O)NC2CC2)c2c3cc(C(=O)N4CC(F)C4)ccc3n(Cc3ccc(F)cc3)c2c1 [Example 125, N-cyclopropyl-2-(3,5-dimethyl-4-isoxazolyl)-6-((3-fluoro-1-azetidinyl)carbonyl)-9-(4-fluorobenzyl)-9H-carbazole-4-carboxamide]",< 0.05
7,"CNC(=O)c1cc(-c2c(C)noc2C)cc2c1c1cc(C(=O)N3CC(F)(F)C3)ccc1n2C(C)c1ccccc1 (stereo not drawn) [Example 119, 6-((3,3-difluoro-1-azetidinyl)carbonyl)-2-(3,5-dimethyl-4-isoxazolyl)-N-methyl-9-(1-phenylethyl)-9H-carbazole-4-carboxamide]",< 0.05
8,Cc1noc(C)c1-c1cc(C(N)=O)c2c3cc(C(=O)N4CC(C)OC(C)C4)ccc3n(Cc3cscn3)c2c1 (stereo not drawn) [Example 27],< 0.05
9,COc1ccccc1Cn1c2ccc(C(=O)N3CC(C)OC(C)C3)cc2c2ccc(-c3c(C)noc3C)cc21 (stereo not drawn) [Example 15],< 0.5
10,COCCn1c2ccc(C(=O)N3CC(C)OC(C)C3)cc2c2ccc(-c3c(C)noc3C)cc21 (stereo not drawn) [Example 8],< 0.5
11,Cc1noc(C)c1-c1cc(C(N)=O)c2c3cc(C(=O)N4CCC(F)C4)ccc3n(Cc3cccc(F)c3)c2c1 (stereo not drawn) [Example 81],< 0.05
12,"Cc1noc(C)c1-c1cc(C(N)=O)c2c3cc(C(=O)N4CC(F)C4)ccc3n(C(C)c3ccc(Cl)cc3)c2c1 (stereo not drawn) [Example 94, 9-(1-(4-chlorophenyl)ethyl)-2-(3,5-dimethyl-4-isoxazolyl)-6-((3-fluoro-1-azetidinyl)carbonyl)-9H-carbazole-4-carboxamide]",< 0.05
13,"Cc1noc(C)c1-c1ccc2c3cc(C(=O)N4CCOCC4)ccc3n(CC3CC3)c2c1 [Example 22, 9-(cyclopropylmethyl)-2-(3,5-dimethyl-4-isoxazolyl)-6-(4-morpholinylcarbonyl)-9H-carbazole]",< 0.5
14,"Cc1noc(C)c1-c1cc(C(N)=O)c2c3cc(NS(C)(=O)=O)ccc3n(Cc3ccccc3)c2c1 [Example 143, 9-benzyl-2-(3,5-dimethyl-4-isoxazolyl)-6-(methylsulfonamido)-9H-carbazole-4-carboxamide]",< 0.05
15,"Cc1noc(C)c1-c1cc(C(N)=O)c2c3cc(NC(=O)C4CCOCC4)ccc3n(Cc3ccccc3)c2c1 [Example 145, 9-benzyl-2-(3,5-dimethyl-4-isoxazolyl)-6-((tetrahydro-2H-pyran-4-ylcarbonyl)amino)-9H-carbazole-4-carboxamide]",< 0.05
16,Cc1noc(C)c1-c1ccc2c3cc(C(=O)N4CC(C)OC(C)C4)ccc3n(Cc3ccccc3Cl)c2c1 (stereo not drawn) [Example 11],< 0.5
